These results are taken from PubChem BioAssay (NCI).

Where “and” joins values, the source holds several entries; their conditions need not be identical. Equal values may be shown once.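 The compound was tested at five concentrations on cells cultured in 96-well plates, with a 48-hour exposure period. At the GI50, growth is halved. At the TGI there is no net growth.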 Some results are limits rather than exact numbers.

Experiment in all cases: inhibition of tumour cell growth, NCI panel, 48 h
The test system of test [1] is TK-10 renal.
For test [2], the system named is U251 CNS.
Test [3] deals with NCI-H23 lung.
The subject of test [4] is MOLT-4 leukemia.
For test [5], the system named is OVCAR-5 ovarian.
Test [6] relates to KM12 colon.
Test [7] deals with SK-MEL-2 melanoma.
Test [8] relates to SW-620 colon.
In test [9] the test system is HL-60(TB) leukemia.
Test [10] deals with K-562 leukemia.

Consider `Cc1c(CN2CCC(Nc3ncnc4sc(CC(F)(F)F)cc34)CC2)ccc2c1cc(C#N)n2Cc1cn[nH]c1`, for which the GI50 is 11.6 µM and > 35.2 µM in test [1]; 4.65 µM and 3.16 µM in test [2]; 1.33 µM and 2.23 µM in [3]; 1.91 µM and 1.98 µM in test [4]; 13.2 µM and > 33.4 µM in test [5]; 5.36 µM and 3.22 µM in test [6]. Further, the GI50 is 8.97 µM and 9.33 µM in test [7]; 1.81 µM and 2.19 µM in test [8]; 2.74 µM and 2.83 µM in [9]; 0.883 µM and 1.14 µM in test [10]. Moreover, the TGI in test [1] is 26.2 µM and > 52.3 µM; in test [2] it was 19.6 µM; in [3] it was 18.9 µM; in test [4], 9.55 µM; in [5], 34.9 µM and > 51 µM; in test [6], 22.2 µM. The TGI in [7] was 26.3 µM and 26.5 µM; in [8], 4.97 µM; in test [9], 8.87 µM; in test [10] it was 4.17 µM and 4.95 µM.

Take `O=C(Nc1nccs1)c1cc(C2=CC=CC([N+](=O)[O-])C=C2)nc(=S)[nH]1` (stereo not drawn): the TGI in test [1], in [2], in test [3], in test [4], in test [5] and in [6] was more than 100 µM each time. For the same molecule, the TGI in test [7], in test [8], in test [9] and in [10] was more than 100 µM each time.

With `COc1cc2c(cc1OC)[C@@H](C(O)c1ccccc1)NCC2` (stereo partly drawn), the TGI in test [1], in test [2], in test [3], in [4], in [5] and in test [6] was more than 100 µM each time. For the same molecule, the TGI in test [7], in test [8], in [9] and in [10] was more than 100 µM in each case.

On to `Cc1cc(S(=O)(=O)NC#N)c(S/C(=N\Nc2ccc([N+](=O)[O-])cc2)c2ccccc2)cc1Cl`, for which the GI50 in test [1] is 16 µM; in [2] it was 14.9 µM; in test [3] it was 15.4 µM; in test [4], 4.43 µM; in test [5], 15.7 µM; in [6], 16.6 µM. Moreover, the GI50 in test [7] is 13.8 µM; in test [8], 17.1 µM; in test [9] it was 21.6 µM; in [10] it was 15.2 µM. Moreover, the TGI in test [1] came to 38.3 µM; in [2], 28.1 µM; in test [3], 28.8 µM; in test [4] it was 81.2 µM; in [5], 32.4 µM; in [6] it was 30.2 µM. Moreover, the TGI was determined as 34 µM in test [7], 30.8 µM in test [8], 83.1 µM in test [9] and 42.9 µM in test [10].

For `CCS(=O)(=O)c1ccc(OC)c(Nc2nccc(N(C)c3ccc4c(C)[nH]nc4c3)n2)c1`, the GI50 is 5.15 µM in test [1]; 7.28 µM in test [2]; 6.05 µM in [3]; 6.71 µM in test [4]; 5.75 µM in test [5]; 5.7 µM in test [6]. In addition, the GI50 in test [7] is 5.45 µM; in [8], 7.85 µM; in test [9], 7.37 µM; in [10] it was 2.79 µM. Moreover, the TGI is 14.5 µM in test [1]; more than 25 µM in test [2]; more than 25 µM in test [3]; more than 25 µM in test [4]; more than 22.7 µM in [5]; more than 25 µM in [6]. In addition, the TGI in test [7] was 14.9 µM; in test [8], more than 25 µM; in test [9], 18.9 µM; in test [10], 16.8 µM.

In the case of `CCc1oc2ccccc2c1C(=O)c1cc(Br)c(O)c(Br)c1`, the TGI was 64.9 µM in test [1]; 31 µM in test [2]; 54.8 µM in test [3]; 59.7 µM in test [4]; 46.1 µM in test [5]; 55.1 µM in test [6]. The TGI in test [7] was 45.3 µM; in test [8], more than 100 µM; in test [9], 33.3 µM; in [10], 82.7 µM.

In the case of `O=Cc1[nH]c2ccccc2c1Br`, the TGI in test [1] was 74.3 µM; in test [2], 51.1 µM; in test [3] it was 87.8 µM; in test [4], 68.6 µM; in [5] it was more than 100 µM; in test [6], 50 µM. Moreover, the TGI in [7] is 31.2 µM; in [8] it was more than 100 µM; in [9] it was 51.8 µM; in test [10], 47.4 µM.

On to `Cc1nc(NC(=S)Nc2ccc(F)cc2)sc1C(=O)NNC(=S)Nc1ccc(F)cc1`, for which the GI50 is 6.93 µM in [1]; 2.78 µM in test [3]; 3.33 µM in test [4]; 16.2 µM in test [5]; 3.11 µM in [6]; 19.4 µM in test [7]. Besides, the GI50 was 10.6 µM in test [8], 3.68 µM in [9] and 3.91 µM in test [10]. Further, the TGI in [1] is 48.1 µM; in [3], 9.73 µM; in test [4], more than 100 µM; in test [5], 62.1 µM; in test [6] it was 13.4 µM; in test [7] it was 60.3 µM. For the same molecule, the TGI in [8] is 25.2 µM; in test [9], 27.8 µM; in [10], more than 100 µM.
